The star is where a group is joined. Biotin = O=C1N[C@H]2[C@H](CS[C@H]2CCCCC(=O)*)N1
Columns and labels:
[1] = test system: MMP-1 expression in dermal fibroblasts induced by extracellular 14-3-3 protein; test: MMP-1 expression in dermal fibroblasts treated with KLCCM after R-18 pull-down of 14-3-3 proteins; assay type: cell-based
Description: The KLCCM used in these experiments was taken from day 28 of cell transdifferentiation due to their high capacity of inducing MMP-1 expression in dermal fibroblasts (data not shown). […] As negative control, dermal fibroblasts treated with medium that was not conditioned (DMEM (49%), KSFM (49%) plus 2% FBS) were used (“Pull-down”−).

[2] = test system: association of 14-3-3 proteins with Raf-1; settings: Wang et al. 1999; cited from earlier work

R-18: small peptide 14-3-3 antagonist (Wang et al. 1999) capable of blocking the association of 14-3-3 proteins with Raf-1 (Biotin-PHCVPRDLSWLDLEANMCLP-OH; not fully specified; cysteine pairing not given here)
inhibition of induction of MMP-1 expression by extracellular 14-3-3 protein (in words) ([1]; FIG. 5 legend): inhibits induction of MMP-1 expression | blocking the association of 14-3-3 proteins with Raf-1 [2]: capable of blocking the association of 14-3-3 proteins with Raf-1

Biotin-PHCVPRDLSWLDLEANMCLP-OH (cysteine pairing not given here) [biotinylated R-18]
reduction of MMP-1 expression ([1]; pre-treatment of KLCCM with biotinylated R-18 and avidin sepharose (pull-down), dermal fibroblasts, MMP-1/β-actin densitometry): 68.8%

— patent publication US20200157195A1, “14-3-3 Antagonists for the Prevention and Treatment of Arthritis” (THE UNIVERSITY OF BRITISH COLUMBIA, priority 2007, published 2020)
